According to patent US8338426B2, “Piperazinyl derivatives useful as modulators of the neuropeptide Y2 receptor” (Janssen Pharmaceutica NV, priority 2007, dated 2012):

Assays:
[1] = target: T1, Y2 receptor binding sites in rat hippocampus (Rattus norvegicus, UniProt Q9ERC0); assay: Ex vivo Y2 receptor occupancy in rats (autoradiography)
T1 construct: from tissue; host or cells: rat brain sections (hippocampus) after in vivo dosing
T1 sequence (Q9ERC0 1-381): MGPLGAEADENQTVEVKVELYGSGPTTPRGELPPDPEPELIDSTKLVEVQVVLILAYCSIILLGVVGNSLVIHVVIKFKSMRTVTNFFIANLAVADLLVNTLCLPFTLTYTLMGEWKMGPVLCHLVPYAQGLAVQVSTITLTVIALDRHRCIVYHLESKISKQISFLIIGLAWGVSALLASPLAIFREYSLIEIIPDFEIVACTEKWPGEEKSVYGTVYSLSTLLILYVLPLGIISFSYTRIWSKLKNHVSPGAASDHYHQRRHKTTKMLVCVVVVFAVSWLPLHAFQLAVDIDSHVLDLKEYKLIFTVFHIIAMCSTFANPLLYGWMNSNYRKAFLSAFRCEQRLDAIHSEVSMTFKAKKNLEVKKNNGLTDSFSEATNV
Description: (§1) The pharmacokinetic, blood-brain barrier penetration and ex vivo receptor occupancy studies were performed as described in Bonaventure, P., D. Nepomuceno, C. Mazur, B. Lord, D. A. Rudolph, J. A. Jablonowski, N. I. Carruthers and T. W. Lovenberg, J Pharmacol Exp Ther. 2004, 308, 1130.
(§2) The compound of formula (A) was formulated in 20% hydroxypropylbetacyclodextrine. Subcutaneous (SC), oral (PO) or intravenous (IV) dosing was followed by blood sampling via cardiac puncture over a time course. Blood samples consisted of 250 μl samples taken from the heart using a 23-gauge needle into 1.5 ml micro-centrifuge tubes. Brains were removed from the animals and bisected down the midsagittal plane. One hemisphere was frozen on dry ice for ex vivo receptor binding autoradiography and the other was homogenized for LC/MS-MS analysis.
Ex vivo receptor binding autoradiography was performed on brain sections. Twenty-micron-thick coronal sections at the level of the […] regions were collected and incubated for 10 min with 100 pM [^125I]PYY in Krebs-Ringer phosphate buffer (KRP) at pH 7.4 supplemented with 0.1% BSA, 0.05% bacitracin, and 1 μM BIBP-3226 for Y1 receptor occlusion. The sections were not washed prior to incubation and were incubated 10 minutes to avoid dissociation. Nonspecific binding was determined using adjacent sections incubated in the presence of 1 μM unlabelled hNPY. At the end of the incubation, sections were washed 4 times (4 minutes each) in ice cold buffer, dipped in deionized water and rapidly dried under a stream of cold air. Sections were exposed to a Fujifilm Imaging Plate (BAS-MS2025) for 12 hours. The Phosphor Imaging Plate was scanned using a Fuji Bio-Imaging Analyzer System (BAS-5000). The digitized computer images generated by the scanner were visualized and quantified using ImageGauge V3.12 software (Fujifilm).

[2] = Pharmacokinetic study in rats; format: in vivo; settings: rat, whole blood; for Vd: iv
Description: as §1, §2
All blood samples were deproteinized by 1:4 dilution of the sample with acetonitrile with vigorous mixing. These samples were incubated for 5 minutes, and then centrifuged at 14,000 rpm in a micro-centrifuge for 4 minutes. The supernatant was recovered into auto-sampler vials and diluted 1:1 with sterile water. Samples were analyzed by LC-MS/MS. A Vydac SP C18 2.1×50 mm analytical column was used for separation.
Oral, subcutaneous and intravenous pharmacokinetic parameters of the compound of formula (A) were determined in rats and are listed in Table 2 below.

[3] = Pharmacokinetic study in dogs; format: in vivo, male Beagle dog; settings: dog; for Vd: iv, 1 mg/kg
Description: Male Beagle Canines 11-15 kilograms in body weight were used. Three animals received a bolus oral dose of the compound via an oral gavage at a dose of 5 mg/kg. Three animals received a bolus intravenous dose of the compound at a dose of 1 mg/kg in the right cephalic vein. Blood sampling of the cephalic or jugular veins followed dosing over a time course. Blood samples consisted of 4-5 mL samples taken from the vein into heparinized blood collection tubes containing Li Heparin. These blood samples were then centrifuged. The plasma was retained and kept frozen in a −40° C. freezer until processed for analysis. The time course for sampling was as follows: 0.25, 0.5, 1, 2, 4, 8, and 24 hours for oral administration and 0.08, 0.25, 0.5, 1, 2, 4, 8, and 24 hours for intravenous administration. These samples were analyzed by LC-MS/MS. The LC-MS/MS data was analyzed using a non-compartmental model with the software package WinNonlin Version 4.0.1 (Pharsight, Palo Alto, Calif.). All figures plasma level versus time figures were created using GraphPad Prism 4 (San Diego, Calif.).
The compound of formula (A) was formulated in 20% hydroxypropyl-β-cyclodextrine. Oral and intravenous pharmacokinetic parameters for the compound of formula (A) were determined in male Beagles with results as shown in FIG. 3 and Table 3 below.

[4] = male, beagle, plasma, IV 1 mg/kg
[5] = male, beagle, plasma, PO 5 mg/kg

Compound: CCN(CC)C(=O)C(c1ccccc1)N1CCN(c2ccc(NC(=O)c3ccccc3-c3cccnc3)cc2F)CC1 (racemic) [Cmpd (A), N-{4-[4-(Diethylcarbamoyl-phenyl-methyl)-piperazin-1-yl]-3-fluoro-phenyl}-2-pyridin-3-yl-benzamide]
- time of maximal receptor binding site occupancy ([1]; rat hippocampus, SC 10 mg/kg): ~1 h
- ED50 ([1]; rat hippocampus, SC, t=60 min): 2 mg/kg
- receptor occupancy at 10 mg/kg ([1]; rat, 10 mg/kg SC, read-out: maximal ex vivo receptor occupancy): ~100%
- Vd ([2]; read-out: VSS): 0.73 L/kg
- Vd ([2]; read-out: Vz): 1.07 L/kg
- AUC(0-inf) ([2]; IV): 0.708 µM·h
- C0 ([2]; IV): 5.33 µM
- clearance ([2]; IV): 42.3 mL/min/kg
- half-life ([2]; IV): 17.4 min
- AUC(0-inf) ([2]; PO 10 mg/kg): 0.444 µM·h
- Cmax ([2]; PO 10 mg/kg): 0.414 µM
- Tmax ([2]; PO 10 mg/kg): 30 min
- bioavailability ([2]; PO 10 mg/kg): 6%
- half-life ([2]; PO 10 mg/kg): 31.8 min
- AUC(0-inf) ([2]; SC 10 mg/kg): 7.91 µM·h
- Cmax ([2]; SC 10 mg/kg): 4.35 µM
- Tmax ([2]; SC 10 mg/kg): 30 min
- bioavailability ([2]; SC 10 mg/kg): > 100%
- half-life ([2]; SC 10 mg/kg): 50 min
- Lambda z ([3]; IV 1 mg/kg): 1.47 h⁻¹
- Lambda z ([3]; PO 5 mg/kg): 0.71 h⁻¹
- Vd ([3]; male, beagle, plasma, IV 1 mg/kg, read-out: VSS): 0.57 L/kg
- Vd ([3]; male, beagle, plasma, IV 1 mg/kg, read-out: Vz): 0.64 L/kg
- AUC(0-inf) [3, 4]: 1.89 µM·h
- AUC(0-t) [3, 4]: 0.89 µM·h
- C0 [3, 4]: 6.24 µM
- MRT inf [3, 4]: 36.6 min
- clearance [3, 4]: 15.8 mL/min/kg
- half-life [3, 4]: 28.2 min
- AUC(0-inf) [3, 5]: 2.79 µM·h
- AUC(0-t) [3, 5]: 2.73 µM·h
- Cmax [3, 5]: 1.55 µM
- MRT inf [3, 5]: 103 min
- Tmax [3, 5]: 49.8 min
- half-life [3, 5]: 59.4 min
